US6528510B1, “HIV protease inhibitors” (Warner-Lambert Company, priority 1998, dated 2003)
Where two headings read alike, the source gives them in different places.

Columns and labels:
[1] = Cellular toxicity in uninfected CEM cells, XTT (TC50); conditions: human, uninfected CEM cells (lymphocyte derived)
Experimental: (§1) Compound concentrations were 0.32, 1, 3.2, 10, 32, and 100 uM.

[2] = biological target: T1, Recombinant HIV-1 protease (Human immunodeficiency virus type 1 group M subtype B, UniProt P04585); assay: HIV protease assay (Ki determination, HPLC readout of substrate III cleavage); type: biochemical
T1 construct: Recombinant HIV-1 protease (>96% purity); purchased Bachem Bioscience, Inc. (King of Prussia, Pa.)
Experimental: Recombinant HIV-1 protease (>96% purity) and HIV protease substrate III (the undecapeptide H-His-Lys-Ala-Arg-Val-Leu-Nph-Glu-Ala-Nle-Ser-NH2, 97% purity) were purchased from Bachem Bioscience, Inc. (King of Prussia, Pa.).
The methods employed follow the procedures of Tummino, et al., Archives of Biochemistry and Biophysics, 1995;316:523). […] (total volume, […]). […] The final inhibitor concentrations used were 0 (0.1, 0.2, in some experiments), 0.5, 1, 2, 5, 10, 20, 50, and 100 μM. The solution was mixed, incubated for 5 minutes and the reaction quenched by addition of trifluoracetic acid, 2% final. The (leu-p-nitro-phe) bond of the substrate is cleaved by the enzyme and substrate arid products separated by reverse-phase HPLC. Absorbance was measured at 220 nm, peak areas determined, and percentage conversion to product used to calculate percentage control (=[% conversion (+inhibitor)/% conversion (−inhibitor)]×100).

[3] = test system: HIV infected lymphocyte derived CEM cells; assay: Cellular infection assay in CEM cells, XTT cytopathic procedure (EC50); conditions: for TI (therapeutic index, TC50/EC50): CEM cells; for EC50: Human immunodeficiency virus 1, CCRF-CEM, read-out: Antiviral Efficacy EC50
Experimental: as §1

Structure (SMILES) | CC50 [1] | Ki [2] | TI (therapeutic index, TC50/EC50) [3] | EC50 [3] | Ki ([2]; recombinant HIV-1 protease, read-out: Inhib of HIV Protease KI)
Cc1cnc(CCC2(C(C)C)CC(O)=C(Sc3cc(C)c(CO)cc3C(C)(C)C)C(=O)O2)s1 (racemic) [Example 28, 3-(2-tert-Butyl-4-hydroxymethyl-5-methyl-phenylsulfanyl)-4-hydroxy-6-isopropyl-6-[2-(5-methyl-thiazol-2-yl)-ethyl]-5,6-dihydro-pyran-2-one] | 229000 nM | 0.24 nM | 120 | 1900 nM | –
Cc1cc(SC2=C(O)CC(CCc3csc(C(C)C)n3)(C(C)C)OC2=O)c(C(C)(C)C)cc1CO (racemic) [Example 32, 3-(2-tert-Butyl-4-hydroxymethyl-5-methyl-phenylsulfanyl)-4-hydroxy-6-isopropyl-6-[2-(2-isopropyl-thiazol-4-yl)-ethyl]-5,6-dihydro-pyran-2-one] | 91000 nM | 1.6 nM | 4 | 23000 nM | –
Cc1cc(SC2=C(O)CC(CCc3scnc3C(C)C)(C(C)C)OC2=O)c(C(C)(C)C)cc1CO (racemic) [Example 33, 3-(2-tert-Butyl-4-hydroxymethyl-5-methyl-phenylsulfanyl)-4-hydroxy-6-isopropyl-6-[2-(4-isopropyl-thiazol-5-yl)-ethyl]-5,6-dihydro-pyran-2-one] | 101000 nM | – | 72 | 1400 nM | –
Cc1cc(SC2=C(O)CC(CCc3ccsc3)(C(C)C)OC2=O)c(C(C)(C)C)cc1N (racemic) [Example 35, 3-(4-Amino-2-tert-butyl-5-methyl-phenylsulfanyl)-4-hydroxy-6-isopropyl-6-(2-thiophen-3-yl-ethyl)-5,6-dihydro-pyran-2-one] | 72000 nM | 0.88 nM | 48 | 1500 nM | –
Cc1cc(SC2=C(O)CC(CCc3ccc(CO)s3)(C(C)C)OC2=O)c(C(C)(C)C)cc1O (racemic) [Example 37, 3-(2-tert-Butyl-4-hydroxy-5-methyl-phenylsulfanyl)-4-hydroxy-6-[2-(5-hydroxymethyl-thiophen-2-yl)-ethyl]-6-isopropyl-5,6-dihydro-pyran-2-one] | 100000 nM | 0.37 nM | 24 | 4200 nM | –
Cc1cc(SC2=C(O)CC(CCc3ccc(CO)s3)(C(C)C)OC2=O)c(C(C)(C)C)cc1N (racemic) [Example 38, 3-(4-Amino-2-tert-butyl-5-methyl-phenylsulfanyl)-4-hydroxy-6-[2-(5-hydroxymethyl-thiophen-2-yl)-ethyl]-6-isopropyl-5,6-dihydro-pyran-2-one] | 124000 nM | 0.33 nM | 113 | 1100 nM | –
Cc1cc(SC2=C(O)CC(CCc3cc[nH]n3)(C(C)C)OC2=O)c(C(C)(C)C)cc1CO (racemic) [Example 40, 3-(2-tert-Butyl-4-hydroxymethyl-5-methyl-phenylsulfanyl)-4-hydroxy-6-isopropyl-6-[2-(1H-pyrazol-3-yl)-ethyl]-5,6-dihydro-pyran-2-one] | > 320000 nM | 0.28 nM | >57 | 5600 nM | –
Cc1cc(SC2=C(O)CC(CCc3cncnc3)(C(C)C)OC2=O)c(C(C)(C)C)cc1CO (racemic) [Example 42, 3-(2-tert-Butyl-4-hydroxymethyl-5-methyl-phenylsulfanyl)-4-hydroxy-6-isopropyl-6-(2-pyrimidin-5-yl-ethyl)-5,6-dihydro-pyran-2-one] | > 200000 nM | – | >159 | 1300 nM | –
Cc1ccc(C(C)(C)C)c(SC2=C(O)CC(CCc3ccc(CO)s3)(C(C)C)OC2=O)c1 (racemic) [Example 55, 3-(2-tert-Butyl-5-methyl-phenylsulfanyl)-4-hydroxy-6-[2-(5-hydroxymethyl-thiophen-2-yl)-ethyl]-6-isopropyl-5,6-dihydro-pyran-2-one] | 66000 nM | 1.7 nM | 8 | 8300 nM | –
Cc1cc(SC2=C(O)CC(CCC3CCCO3)(C(C)C)OC2=O)c(C(C)(C)C)cc1N (racemic) [Example 56, 3-(4-Amino-2-tert-butyl-5-methyl-phenylsulfanyl)-4-hydroxy-6-isopropyl-6-[2-(tetrahydro-furan-2-yl)-ethyl]-5,6-dihydro-pyran-2-one] | 210000 nM | 11 nM | 21 | 10000 nM | –
Cc1cc(SC2=C(O)CC(CCc3ccsc3)(C(C)C)OC2=O)c(C(C)(C)C)cc1NS(=O)(=O)c1ccc(C(F)(F)F)cn1 (racemic) [Example 59, 5-Trifluoromethyl-pyridine-2-sulfonic acid {5-tert-butyl-4-[4-hydroxy-6-isopropyl-2-oxo-6-(2-thiophen-3-yl-ethyl)-5,6-dihydro-2H-pyran-3-ylsulfanyl]-2-methyl-phenyl}-amide] | 66000 nM | 0.08 nM | 110 | 600 nM | –
Cc1cc(SC2=C(O)CC(CCc3ccc4[nH]ccc4c3)(C(C)C)OC2=O)c(C(C)(C)C)cc1CO (racemic) [Example 61, 3-(2-tert-Butyl-4-hydroxymethyl-5-methyl-phenylsulfanyl)-4-hydroxy-6-[2-(1H-indol-5-yl)-ethyl]-6-isopropyl-5,6-dihydro-pyran-2-one] | 46000 nM | 0.98 nM | 68 | 680 nM | –
Cc1cc(SC2=C(O)CC(CCc3sccc3C)(C(C)C)OC2=O)c(C(C)(C)C)cc1N (racemic) [Example 65, 3-(4-Amino-2-tert-butyl-5-methyl-phenylsulfanyl)-4-hydroxy-6-isopropyl-6-[2-(3-methyl-thiophen-2-yl)-ethyl]-5,6-dihydro-pyran-2-one] | 60000 nM | 1.2 nM | 54 | 1100 nM | –
Cc1cc(SC2=C(O)CC(CCc3cccnc3)(C(C)C)OC2=O)c(C(C)(C)C)cc1CO (stereo not drawn) [Example 2, 3-(2-tert-Butyl-4-hydroxymethyl-5-methyl-phenylsulfanyl)4-hydroxy-6-isopropyl-6-(2-pyridin-3-yl-ethyl)-5,6-dihydro-pyran-2-one] | – | – | – | – | 0.9 nM
Cc1cc(SC2=C(O)C[C@@](CCc3ccccc3)(C(C)C)OC2=O)c(C(C)C)c2sc(N)nc12 [Example 17, (S)-3-(2-Amino-7-isopropyl-4-methyl-benzothiazol-6-yl-sulfanyl)-4-hydroxy-6-isopropyl-6-phenethyl-5,6-dihydro-pyran-2-one] | 42000 nM | – | 16 | 2700 nM | –
Cc1cc(SC2=C(O)C[C@@](CCc3ccc(O)cc3)(C(C)C)OC2=O)c(C(C)C)c2sc(N)nc12 [Example 18, (S)-3-(2-Amino-7-isopropyl-4-methyl-benzothiazol-6-ylsulfanyl)-4-hydroxy-6-[2-(4-hydroxyl-phenyl)-ethyl]-6-isopropyl-5,6-dihydro-pyran-2-one] | 117000 nM | – | 105 | 1100 nM | –
Cc1cc(SC2=C(O)CC(CCc3scnc3C)(C(C)C)OC2=O)c(C(C)(C)C)cc1CO (stereo not drawn) [Example 24, 3-(2-tert-Butyl-4-hydroxymethyl-5-methyl-phenylsulfanyl)-4-hydroxy-6-isopropyl-6-[2-(4-methyl-thiazol-5-yl)-ethyl]-5,6-dihydro-pyran-2-one] | 164000 nM | – | 443 | 370 nM | –
